# Experiments:
# [1] = tested on: regulatory T cells (Tregs); assay: Topical MC903 on ear skin of wildtype mice, fraction of Tregs in skin, blood and lymphoid organs; assay type: in vivo; conditions: 2 nmol
# Excerpt: FIGS. 1A-1B comprise graphs relating to topical treatment of B6 mice with EtOH or MC903 (2 nmol) on one ear. FIG. 1A, comprising FACS data and a graph, illustrates the percentage of regulatory T cells (Tregs) in the ear skin homogenate of B6 mice. “Treated” refers to topical administration of MC903 to the ear skin of the B6 mice. “Untreated” refers to topical administration of EtOH to the ear skin of the B6 mice. FIG. 1B comprises graphs illustrating the percentage of Tregs out of CD4+ T cells in the blood, spleen, and peripheral lymph nodes of B6 mice topically treated with MC903. FIG. 2 is a graph illustrating the percentage of Tregs out of CD4+ T cells in the spleen after B6 mice were treated topically or injected intraperitoneally with EtOH or MC903 (2 nmol). Wildtype (WT) mice were treated with vehicle (100% EtOH) or MC903 once a day on the skin of one ear for 7 days. On Day 8, the ear skin of both ears, blood, and secondary lymphoid organs (lymph nodes and spleen) were harvested.
# [2] = tested on: regulatory T cells (Tregs); assay: Kinetics of systemic Treg levels after topical MC903 treatment; assay type: in vivo, mice; conditions: Day 15, after cessation of topical treatment
# Excerpt: (§1) FIG. 3A-3C comprise graphs illustrating data derived from topical treatment of B6 mice with EtOH or MC903 (2 nmol) until […]. Mice were taken at different time points post treatment initiation as indicated. FIG. 3A is a graph illustrating the percentage of Tregs out of CD4+ T cells in the spleen and blood of B6 mice over 18 days. FIG. 3B illustrates the absolute numbers of Tregs in the spleen of B6 mice over 18 days. FIG. 3C illustrates the serum thymic stromal lymphopoietin (TSLP) level change over time in B6 mice over 18 days.
# (§2) Next, the kinetics of the systemic increase in Treg levels was investigated after topical MC903 treatment (treatment stopped on Day 7). The absolute number and the fraction of Tregs increased to a peak between days 6 and 9 and gradually declined thereafter in the spleen and the blood of MC903-treated mice (FIGS. 3A-3B). Circulating TSLP levels peaked at Day 6 and fell abruptly by Day 9 (FIG. 3C).
# [3] = tested on: thymic stromal lymphopoietin (TSLP); assay: Circulating (serum) TSLP level over time after topical MC903; assay type: in vivo, mice; conditions: topical MC903, treatment stopped on Day 7; fell abruptly by Day 9
# Excerpt: as §1, §2
# ApoE KO mice = assay: ApoE KO mouse model of atherosclerosis, topical MC903; assay type: in vivo; conditions: high fat Western diet, topical 3 times/week every other week for 10 weeks
# Excerpt: FIGS. 6A-6B comprise graphs illustrating data derived from topical treatment of ApoE KO mice fed a high-fat Western diet with EtOH or MC903 (2 nmol) 3 times/week every other week for 10 weeks. FIG. 6A illustrates the total cholesterol levels at baseline, at week 3, and week 10 of ApoE KO mice. FIG. 6B illustrates the atherosclerotic plaques difference among ApoE KO mice. The full length of the aorta was removed from the mice at week 10 and stained with Oil Red O dye to detect atherosclerotic plaques. The area occupied by the plaque was calculated and divided by the total area of the aorta (% lesion area). N=7 mice/group. * indicates significance of p<0.01 by T-test.
# The effects of topical application of MC903 on atherosclerotic plaques were investigated. Atherosclerosis is a disease condition where lipid deposition occurs in arterial walls, leading to obstruction of blood flow. Ultimately, these lesions cause morbidity and mortality by affecting blood flow to the heart (myocardial infarction; angina) or the brain (stroke). Although these lesions are formed by cholesterol deposits in patients who have hypercholesterolemia, immune activation is necessary for plaque progression, and Tregs are implicated in dampening the progression of atherosclerosis. It is contemplated that topical MC903 treatment can attenuate plaque progression in atherosclerosis. […]
# B6 mice = assay: K/BxN serum-induced arthritis mouse model, topical MC903; assay type: in vivo
# Description: FIGS. 8A-8B comprise graphs illustrating data derived from injecting B6 mice with 75 μl of serum from K/B×N mice on Days 0 and 2, and topically treating the mice with MC903 starting at Day 0. FIG. 8A illustrates the percentage of Tregs in blood of B6 mice determined on Day 8 post MC903 treatment in comparison with EtOH treatment. FIG. 8B illustrates the change of ankle thickness over time after B6 mice were injected with 75 μl of serum from K/B×N mice on Days 0 and 2, and were topically treated with MC903 starting at Day 0. Ankle thickness was measured twice a week and plotted as % maximal ankle thickness of each mouse. N=3 mice/group. Whether MC903 treatment can attenuate joint swelling in a mouse model of rheumatoid arthritis was tested in the following experiment. In this model, serum from arthritic mice (K/B×N) is injected into normal wildtype mice. […] Mice were treated topically with MC903 or EtOH (daily) and injected with arthritogenic serum (on Days 0 and 2).
# Tregs = assay: Treg % in blood and spleen after topical vitamin D3 analogs; assay type: in vivo, mice; conditions: topical MC903, summary statement of Example 6
# Excerpt: FIGS. 10A-10B comprise bar graphs illustrating data derived from topically treating mice with EtOH or EB1089 (0.04 nmol/ear) for 5 days and bleeding them on Day 7. Treg % from (FIG. 10A) blood and (FIG. 10B) spleen are illustrated. N=3 mice/group. *p<0.01 by Student t-test.
# VDR stimulation of keratinocytes led to TSLP production, which in certain embodiments caused increase in Treg numbers. The effects of two vitamin D3 analogs (22-Oxacalcitriol, also known as 22-OXA, and EB1089) on TSLP production and Treg numbers were evaluated. Similarly to MC903, 22-OXA and EB1089 were applied to the ear skin bilaterally at a dose of 2 nmol/ear dissolved in ethanol. After 5 days of treatment, the mice were bled and serum TSLP levels were measured. […] To avoid the toxic effect, the dose of 22-OXA and EB1089 was lowered to a point where morbidity and mortality of mice was not observed (0.4 nmol/ear for 22-OXA; 0.04 nmol/ear for EB1089). At this dose, no increase in TSLP level was detected in 22-OXA-treated mice (FIG. 9B).
# C57BL6 mice = assay: High fat diet (HFD) type II diabetes mouse model, topical MC903; assay type: in vivo; conditions: topical three times a week every other week, vs ethanol
# Description: FIG. 13 comprises a graph illustrating the finding that topical administration of MC903 improves overnight fasting glucose levels in mice fed with 12 weeks of high fat diet (HFD).
# Topical administration of MC903 was evaluated in a model of high fat diet (HFD) type II diabetes mice. Male C57BL6 mice, which were 8 weeks at the onset of the study, were used. The mice were fed a high fat diet (45 kcal % of fat; research diet No. D12451, OpenSource Diets) for 20 weeks. During this period, the mice were topically administered ethanol or MC903 three times a week (Monday, Wednesday and Friday), every other week, for the duration of the experiment.
smiles,measurement,setting,value
"C=C1/C(=C\C=C2/CCC[C@]3(C)[C@@H]([C@H](C)/C=C/[C@@H](O)C4CC4)CC[C@@H]23)C[C@@H](O)C[C@@H]1O [MC903, 26,27-cyclo-22-ene-1α,24S-dihydroxyvitamin D3]",effect on Tregs (spleen) when injected intraperitoneally,[1]; intraperitoneal injection,No effect
same,increase in the fraction of Tregs (% Foxp3+ of CD4+ T cells) in treated ear skin,"[1]; topical once a day on one ear for 7 days, Day 8, compared to EtOH-treated side",about 2 fold
same,Treg levels versus EtOH-treated group by Day 15,[2],no differences
same,time of peak of circulating TSLP levels,[3],6 days
same,decrease of % of area occupied by the plaques in the aorta,ApoE KO mice,> 50%
same,total cholesterol levels,ApoE KO mice,did not alter
same,joint swelling and erythema after Day 7,B6 mice; concomitant with the elevated Treg percentages,quick reduction
same,circulating Treg levels,"B6 mice; mice injected with arthritogenic serum, topical daily",increased
same,systemic Treg numbers,Tregs,increase systemic Treg numbers
same,overnight fasting glucose levels,C57BL6 mice,improved overnight fasting glucose levels

# — US11752159B2, “Compositions and methods for suppressing or reducing systemic immune response in a subject” (THE TRUSTEES OF THE UNIVERSITY OF PENNSYLVANIA, priority 2015, dated 2023)
